Measurements as given in patent US9192559B2, “Compositions” (Givaudan SA, priority 2006, dated 2015).

What was measured:
[1] = tested on: Aspergillus niger ATCC 16404 spores; test: Sporicidal effect of test compounds in water; format: cell-based; conditions: 0.1% test compound in water; for Sporicidal effect (reduction of spore counts), in words: 7 days
Experimental: Aspergillus niger ATCC 16404 spores are added to water to obtain a density of 3×10^5 spores/ml.
In order to prepare the spores, the test strain is grown for 5 days on potato dextrose agar at room temperature. The spores are harvested with a solution containing 0.1% Tween 80, peptone 0.1% and NaCl 0.85% and the spore concentration is adjusted to the density indicated above.
Test compounds are dissolved in dipropyleneglycol to a concentration of 20%.
These stock solutions are added to 10 ml aliquots of the spore suspension to obtain a final concentration of the test compounds of 0.1%. The sporicidal effect is shown by a reduction of spore counts after 7 days.
The reduction factor is determined as follows. Aliquots of the above prepared suspension of microorganisms (here: spore suspension prepared as described above) are plated on a suitable agar medium (see above) and the developing colonies are counted both for samples with test compound and for a negative probe (water). The count of the negative control is divided by the count of the test compound and thereby the reduction factor is determined. A negative control (water) accordingly has a reduction factor of 1 (no effect on the microorganism).

[2] = tested on: Aspergillus niger ATCC 16404 spores; test: Sporicidal activity in a preservative-free oil-in-water emulsion skin cream; format: cell-based; conditions: 0.1% 4-hydroxybenzaldehyde, 0% diol, listed as benzaldehyde derivative
Experimental: (§1) A preservative-free oil-in-water emulsion skin cream is used. Test samples of cream are made up to contain different amounts of diol compounds and/or benzaldehyde derivatives. The diol compound and the benzaldehyde derivatives is added to an aliquot of 10 g of the cream in 50 ml tubes in a concentration as shown in the table below. After addition of the preservative/preservative enhancer, the cream is thoroughly mixed to achieve a homogeneous distribution. The cream is then stored for 1-3 days to equilibrate at room temperature (in order to achieve a homogenous partitioning of compounds between oil and water phase).
(§2) For testing of sporicidal effect, to each sample 100 μl of a spore suspension of Aspergillus niger ATCC 16404 containing 3×10^7 spores/ml (prepared as described in example 1) is added.
(§3) After regular test intervals, samples of 1 g cream are removed and added to 20 ml of a neutralizer solution containing 0.2% lecithin, 2% Tween 80 and 0.5% NaCl. These dilutions are vigorously shaken for 10 min until the cream is dissolved, and then aliquots of this solution are spread plated on potato dextrose agar containing 0.2% Tween 80. After 48 h to 72 h the number of surviving colony forming units (and therefore surviving spores) are counted.
The count of the negative control is divided by the count of the probe and thereby the reduction factor is determined.

[3] = tested on: A. niger spores; test: Activity against A. niger spores in skin cream Cremor basalis; format: cell-based, Aspergillus niger
Experimental: as §1, §2, §3
The example is performed as described in example 2 except for the following changes:
The preservative-free cosmetic cream for application to the human skin is Cremor basalis (commercially available from Fagron GmbH, Barsbüttel, Germany).

Q: Which “Sporicidal effect (reduction of spore counts), in words” value [1] does the source give for `COc1ccc(C=O)cc1` [4-methoxy-benzaldehyde] here?
A: No significant reduction of spore counts

Q: For `O=Cc1ccc(O)cc1` [4-hydroxybenzaldehyde], which “Sporicidal effect (reduction of spore counts), in words” value [1] is on record?
A: No significant reduction of spore counts

Q: What about the “reduction factor 7d fungal spores” value [2] of the same compound?
A: no sporicidal effect

Q: And the “Reduction factor fungal spores, 7d” value ([3]; 0.5% 4-hydroxybenzaldehyde on its own)?
A: 57.6

Q: What about the “Reduction factor fungal spores, 7d” value ([3]; no added diol, 0.125% 4-HBA) of the same compound?
A: 5.5

Q: With `C=CCCCCCCCCO` [9-decenol] as the compound, how does the “Sporicidal effect (reduction of spore counts), in words” value [1] read?
A: significant sporicidal effect

Q: How did the “Sporicidal effect (reduction of spore counts), in words” value [1] turn out when `CC(CC=O)CCc1ccccc1` (centres unmarked) [Mefranal, 3-methyl-5-phenylpentanal] was run?
A: significant sporicidal effect

Q: `CC(CO)CO` [2-Methyl-1,3-propandiol, 2-Methyl-1,3-propanediol] was tested. Which “Reduction factor fungal spores, 7d” value ([3]; preservative 2%, no 4-HBA) did it give?
A: 3.3

Q: What about the “Reduction factor fungal spores, 7d” value ([3]; preservative 4%, no 4-HBA) of the same compound?
A: 25.9

Q: `CCCCCCC(O)CO` (centres unmarked) [1,2-Octandiol, 1,2-octanediol] was tested. Which “Reduction factor fungal spores, 7d” value ([3]; preservative 0.25%, no 4-HBA) did it give?
A: 2.2

Q: Which results are given for `CC(C)c1ccc(CO)cc1` [Cuminic alcohol]?
A: Spores/ml ([1]; after 7 days): >1.2 × 10^5 Spores/ml; Reduction factor ([1]; after 7 days, count of negative control / count of test compound): <2

Q: For `CCCCC(CC)COCC(O)CO` (centres unmarked) [3-(2-ethyl-hexyloxy)-1,2-propandiol, 3-(2-ethylhexyloxy)propane-1,2-diol], which “Reduction factor fungal spores, 7d” value ([3]; preservative 0.25%, no 4-HBA) is on record?
A: 3.9

Q: And the “Reduction factor fungal spores, 7d” value ([3]; preservative 0.5%, no 4-HBA)?
A: 57.6
